Test results from US9777003B2, “Tricyclic heterocycles as bet protein inhibitors” (Incyte Corporation, priority 2013, dated 2017).
Structures can show the parent of a compound that is named as a salt. Where two headings read alike, the source gives them in different places. Each block holds one compound with its values, some of them ahead of it.

Assays:
[1] = system: KMS.12.BM cells; experiment: KMS.12.BM cell viability assay (Cell Titer-GLO, ATP quantitation); type: cell-based; conditions: KMS.12.BM human myeloma cells, 3 days, concentration required for 50% cell death, read-out: KMS cellular IC50
Experimental: KMS.12.BM cell line (human myeloma) was purchased from JCRB (Osaka, Japan) and maintained in RPMI with 10% FBS culture medium. To measure the cytotoxic activity of the compounds through ATP quantitation, the KMS.12.BM cells are plated in the RPMI culture medium at 5000 cells/well/per 100 μL into a 96-well polystyrene clear black tissue culture plate (Greiner-bio-one through VWR, NJ), in the presence or absence of a concentration range of test compounds. After 3 days, […] Cell Titer-GLO Luminescent (Promega, Madison, Wis.) cell culture agent is added to each well for 10 minutes at room temperature to stabilize the luminescent signal. This determines the number of viable cells in culture based on quantitation of the ATP present, which signals the presence of metabolically active cells. Luminescence is measured with the Top Count 384 (Packard Bioscience through Perkin Elmer, Boston, Mass.). […] IC50 data for the Examples is presented in Table 4 as determined by Assay B1.

[2] = biological target: BRD4-BD1 (Homo sapiens (Human), UniProt O60885); experiment: BRD4 AlphaScreen assay, BRD4-BD1; type: binding; conditions: biotin-labeled tetra-acetylated histone H4 peptide, 75 min, room temperature, read-out: BRD4 BD-1 enzyme IC50
In short: (§1)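 IC50 values from percent-control versus log inhibitor fits after bead-based proximity readout (streptavidin donor, GSH acceptor, 75 min dark). Reactions: 75 min RT, pH 7.4 HEPES, biotin-H4Ac4 peptide 50 nM, with BD1 at 3.8 nM (DMSO 1.25%) and BD2 at 20 nM (DMSO 0.83%).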

[3] = biological target: BRD4-BD2 (Homo sapiens (Human), UniProt O60885); experiment: BRD4 AlphaScreen assay, BRD4-BD2; type: binding; conditions: biotin-labeled tetra-acetylated histone H4 peptide, 75 min, room temperature, read-out: BRD4 BD-2 enzyme IC50
In short: as §1

Compound: Cc1cc2c(cc(N[C@@H]3CCN(C)[C@H](C)C3)c3nnc(C)n32)n1Cc1ccccc1 (mixture of isomers) [Example 224, 6-Benzyl-N-[(2S,4S)-1,2-dimethylpiperidin-4-yl]-1,7-dimethyl-6H-pyrrolo[2,3-e][1,2,4]triazolo[4,3-a]pyridin-4-amine and 6-Benzyl-N-[(2R,4R)-1,2-dimethylpiperidin-4-yl]-1,7-dimethyl-6H-pyrrolo[2,3-e][1,2,4]triazolo[4,3-a]pyridin-4-amine]
- IC50 [1]: ≤ 1000 nM

Compound: Cc1nnc2ccc3c(cc(-c4cc[nH]n4)n3Cc3cccc(CN4CCC4)c3)n12 [Example 182, 6-[3-(Azetidin-1-ylmethyl)benzyl]-1-methyl-7-(1H-pyrazol-3-yl)-6H-pyrrolo[2,3-e][1,2,4]triazolo[4,3-a]pyridine tris(trifluoroacetate) Salt]
- IC50 [2]: ≤ 100 nM
- IC50 [3]: ≤ 100 nM
- IC50 ([1]; 72 h): ≤ 1000 nM

Compound: CNC(=O)CCn1ccc(-c2cc3c(ccc4nnc(C)n43)n2Cc2cccc(Cl)c2)n1 [Example 174, 3-{3-[6-(3-Chlorobenzyl)-1-methyl-6H-pyrrolo[2,3-e][1,2,4]triazolo[4,3-a]pyridin-7-yl]-1H-pyrazol-1-yl}-N-methylpropanamide Trifluoroacetate Salt]
- IC50 [2]: ≤ 100 nM
- IC50 [3]: ≤ 100 nM

Compound: Cc1cc2c(cc(NC3CCN(C)CC3)c3nnc(C)n32)n1Cc1ccccn1 [Example 153, 1,7-dimethyl-N-(1-methylpiperidin-4-yl)-6-(pyridin-2-ylmethyl)-6H-pyrrolo[2,3-e][1,2,4]triazolo[4,3-a]pyridin-4-amine]
- IC50 [2]: ≤ 100 nM
- IC50 [3]: ≤ 100 nM

Compound: Cc1cc2c(ccc3nnc(C)n32)n1Cc1ccccc1Cl [Example 8, 6-(2-chlorobenzyl)-1,7-dimethyl-6H-pyrrolo[2,3-e][1,2,4]triazolo[4,3-a]pyridine]
- IC50 [2]: 100 to 1000 nM
- IC50 [3]: ≤ 100 nM

Compound: Cc1nnc2ccc3c(cc(-c4cccs4)n3Cc3ccccc3)n12 [Example 73, 6-benzyl-1-methyl-7-(2-thienyl)-6H-pyrrolo[2,3-e][1,2,4]triazolo[4,3-a]pyridine]
- IC50 [2]: 100 to 1000 nM
- IC50 [3]: ≤ 100 nM

Compound: Cc1nnc2ccc3c(cc(C(=O)NCC4CNC4)n3Cc3cccc(Cl)c3)n12 [Example 128, N-(Azetidin-3-ylmethyl)-6-(3-chlorobenzyl)-1-methyl-6H-pyrrolo[2,3-e][1,2,4]triazolo[4,3-a]pyridine-7-carboxamide bis(trifluoroacetate) Salt]
- IC50 [2]: 100 to 1000 nM
- IC50 [3]: 100 to 1000 nM

The next lines start with the values.

- IC50 [2]: ≤ 100 nM
- IC50 [3]: ≤ 100 nM
Compound: Cc1cc2c(cc(Nc3ccccn3)c3nnc(C)n32)n1Cc1ccccc1 [Example 240, 6-benzyl-1,7-Dimethyl-N-(pyridin-2-yl)-6H-pyrrolo[2,3-e][1,2,4]triazolo[4,3-a]pyridin-4-amine]

- IC50 [2]: ≤ 100 nM
- IC50 [3]: ≤ 100 nM
Compound: Cc1nnc2ccc3c(cc(C#N)n3Cc3ccccc3)n12 [Example 227, 6-Benzyl-1-methyl-6H-pyrrolo[2,3-e][1,2,4]triazolo[4,3-a]pyridine-7-carbonitrile Trifluoroacetate Salt]

- IC50 [2]: ≤ 100 nM
- IC50 [3]: ≤ 100 nM
Compound: Cc1nnc2ccc3c(cc(-c4ccn(C5COC5)n4)n3Cc3cccc(Cl)c3)n12 [Example 177, 6-(3-Chlorobenzyl)-1-methyl-7-(1-oxetan-3-yl-1H-pyrazol-3-yl)-6H-pyrrolo[2,3-e][1,2,4]triazolo[4,3-a]pyridine Trifluoroacetate Salt]
